# Data as given in patent publication US12357649B2, “Glycoalkaloid combinations and various uses thereof” (priority 2016, dated 2025).
# Experiment: Stability of cream formulation: HPLC assay of solamargine
# Format: physicochemical
# Details: cream with 5% urea, 10% salicylic, 25°C, 60% RH
# Experimental: Visual appearance was conducted by comparison to standard commercially available solamargine cream composition. High-Performance Liquid Chromatography (HPLC) to determine quantity of solamargine in the cream, substantially as described in WO 2000061153 A1.
smiles,measurement,setting,value
"C[C@@H]1CC[C@@]2(NC1)O[C@H]1C[C@H]3[C@@H]4CC=C5C[C@@H](O[C@@H]6O[C@H](CO)[C@@H](O[C@@H]7O[C@@H](C)[C@H](O)[C@@H](O)[C@H]7O)[C@H](O)[C@H]6O[C@@H]6O[C@@H](C)[C@H](O)[C@@H](O)[C@H]6O)CC[C@]5(C)[C@H]4CC[C@]3(C)[C@H]1[C@@H]2C [Solamargine, (22R,25R)-spiro-5-en-3β-yl-α-L-rhamnopyranosyl-(1→2glu)-O-α-L-rhamnopyranosyl-(1→4glu)-β-D-gluco-pyranose]",HPLC Assay Solamargine,"10% lactic acid, 1% Xanthan gum, 0 months",20.6 μg/g cream
same,HPLC Assay Solamargine,"10% lactic acid, 1% Xanthan gum, 3 months",23.1 μg/g cream
same,HPLC Assay Solamargine,"10% lactic acid, 1% Xanthan gum, 6 months",19.8 μg/g cream
same,HPLC Assay Solamargine,"10% lactic acid, 1% Xanthan gum, 9 months",21.2 μg/g cream
same,HPLC Assay Solamargine,"10% lactic acid, 1% Xanthan gum, 12 months",23.1 μg/g cream
same,HPLC Assay Solamargine,"10% lactic acid, 1% Xanthan gum, 18 months",20.4 μg/g cream
same,HPLC Assay Solamargine,"10% lactic acid, 1% Xanthan gum, 24 months",22.1 μg/g cream
same,HPLC Assay Solamargine,"10% lactic acid, 1% Xanthan gum, 36 months",19.8 μg/g cream
same,HPLC Assay Solamargine,"10% lactic acid, 1% Xanthan gum, 42 months",19.6 μg/g cream
same,HPLC Assay Solamargine,"10% lactic acid, 1% Xanthan gum, 48 months",21.2 μg/g cream
same,HPLC Assay Solamargine,"no lactic acid, no emulsion-stabilising agent, 0 months",18.3 μg/g cream
same,HPLC Assay Solamargine,"no lactic acid, no emulsion-stabilising agent, 3 months",19 μg/g cream
same,HPLC Assay Solamargine,"no lactic acid, no emulsion-stabilising agent, 6 months",21.1 μg/g cream
same,HPLC Assay Solamargine,"no lactic acid, no emulsion-stabilising agent, 9 months",9.2 μg/g cream
same,HPLC Assay Solamargine,"no lactic acid, no emulsion-stabilising agent, 12 months",7.3 μg/g cream
same,HPLC Assay Solamargine,"no lactic acid, no emulsion-stabilising agent, 18 months",6.8 μg/g cream
same,HPLC Assay Solamargine,"no lactic acid, no emulsion-stabilising agent, 24 months",5.1 μg/g cream
same,HPLC Assay Solamargine,"no lactic acid, no emulsion-stabilising agent, 36 months",5.3 μg/g cream
same,HPLC Assay Solamargine,"no lactic acid, no emulsion-stabilising agent, 42 months",5.1 μg/g cream
same,HPLC Assay Solamargine,"no lactic acid, no emulsion-stabilising agent, 48 months",5.2 μg/g cream
